From ChEMBL document CHEMBL1128864, “Antitumor activities of -, -monogalactosylceramides and four diastereomers of an -galactosylceramide” (1995)

Columns and labels:
Assay type in all cases: functional
Mus musculus [1] = experiment: Percent of tumor growth inhibition ratio (TGIR)of the compound administered intraperitoneally at dose 5 mg/kg (on day 7, 11,15) in subcutaneously infected BDF1 mice on day 9; conditions: route subcutaneous
Mus musculus [2] = experiment: Percent of tumor growth inhibition ratio (TGIR)of the compound administered intravenously at dose 5 mg/kg (on day 1) in subcutaneously infected BDF1 mice on day 18; conditions: route intravenous
Mus musculus [3] = experiment: Percent of tumor growth inhibition ratio (TGIR)of the compound administered intravenously at dose 100 ug/kg(on day 7, 11,15) in subcutaneously infected BDF1 mice on day 16
Mus musculus [4] = experiment: Percent of tumor growth inhibition ratio (TGIR)of the compound administered intraperitoneally at dose 100 ug/kg(on day 1) in subcutaneously infected BDF1 mice on day 20
Mus musculus [5] = experiment: Percent of tumor growth inhibition ratio (TGIR)of the compound administered intravenously at dose 5 mg/kg (on day 1) in subcutaneously infected BDF1 mice on day 11; conditions: route intravenous
Mus musculus [6] = experiment: Percent of tumor growth inhibition ratio (TGIR)of the compound administered intravenously at dose 5 mg/kg (on day 1) in subcutaneously infected BDF1 mice on day 14; conditions: route intravenous
Mus musculus [7] = experiment: Percent of tumor growth inhibition ratio (TGIR)of the compound administered intravenously at dose 5 mg/kg (on day 1,5,9) in subcutaneously infected BDF1 mice on day 20; conditions: route intravenous
Mus musculus [8] = experiment: Percent of tumor growth inhibition ratio (TGIR)of the compound administered intraperitoneally at dose 5 mg/kg (on day 7, 11,15) in subcutaneously infected BDF1 mice on day 16; conditions: route subcutaneous
Mus musculus [9] = experiment: Percent of tumor growth inhibition ratio (TGIR)of the compound administered intravenously at dose 5 mg/kg (on day 1,5,9) in subcutaneously infected BDF1 mice on day 8; conditions: route intravenous
Mus musculus [10] = experiment: Percent of tumor growth inhibition ratio (TGIR)of the compound administered intravenously at dose 5 mg/kg (on day 10, 14, 18 ) in subcutaneously infected BDF1 mice on day 16; conditions: route intravenous
Mus musculus [11] = experiment: Percent of tumor growth inhibition ratio (TGIR)of the compound administered intravenously at dose 5 mg/kg (on day 10, 14, 18 ) in subcutaneously infected BDF1 mice on day 12; conditions: route intravenous
Mus musculus [12] = experiment: Percent of tumor growth inhibition ratio (TGIR)of the compound administered intravenously at dose 5 mg/kg (on day 1) in subcutaneously infected BDF1 mice on day 20; conditions: route intravenous
Mus musculus [13] = experiment: Percent of tumor growth inhibition ratio (TGIR)of the compound administered intraperitoneally at dose 100 ug/kg(on day 1) in subcutaneously infected BDF1 mice on day 12
Mus musculus [14] = experiment: Percent of tumor growth inhibition ratio (TGIR)of the compound administered intravenously at dose 5 mg/kg (on day10, 14, 18 ) in subcutaneously infected BDF1 mice on day 20; conditions: route intravenous
Mus musculus [15] = experiment: Percent of tumor growth inhibition ratio (TGIR)of the compound administered intraperitoneally at dose 100 ug/kg(on day 1) in subcutaneously infected BDF1 mice on day 13
Mus musculus [16] = experiment: Percent of tumor growth inhibition ratio (TGIR)of the compound administered intravenously at dose 5 mg/kg (on day 1) in subcutaneously infected BDF1 mice on day 22; conditions: route intravenous
Mus musculus [17] = experiment: Percent of tumor growth inhibition ratio (TGIR)of the compound administered intraperitoneally at dose 5 mg/kg (on day 1) in subcutaneously infected BDF1 mice on day 10; conditions: route subcutaneous
Mus musculus [18] = experiment: Percent of tumor growth inhibition ratio (TGIR)of the compound administered intravenously at dose 5 mg/kg (on day1,5,9) in subcutaneously infected BDF1 mice on day 16; conditions: route intravenous
Mus musculus [19] = experiment: Percent of tumor growth inhibition ratio (TGIR)of the compound administered intravenously at dose 5 mg/kg (on day 1,5,9) in subcutaneously infected BDF1 mice on day 12; conditions: route intravenous

With `CO[C@@]12[C@H](COC(N)=O)C3=C(C(=O)C(C)=C(N)C3=O)N1C[C@@H]1N[C@@H]12` [MITOMYCIN] the TGIR (Mus musculus [1]) was 35.2%, the TGIR (Mus musculus [2]) was 51.2% and the TGIR (Mus musculus [3]) was 80%. It also gave a TGIR (Mus musculus [4]) of 48.6%, a TGIR (Mus musculus [5]) of 8.6% and a TGIR (Mus musculus [6]) of 29.7%. The TGIR (Mus musculus [7]) was 83.2%, the TGIR (Mus musculus [8]) was 59.7% and the TGIR (Mus musculus [9]) was 90%. For the same compound, the TGIR (Mus musculus [10]) was 52.8%, the TGIR (Mus musculus [11]) was 38.8% and the TGIR (Mus musculus [12]) was 75.1%. For the same compound, the TGIR (Mus musculus [13]) was 53.9%, the TGIR (Mus musculus [14]) was 68.1% and the TGIR (Mus musculus [15]) was 85.1%. The TGIR (Mus musculus [16]) was 60%, the TGIR (Mus musculus [17]) was 80.1% and the TGIR (Mus musculus [18]) was 86%. It also gave a TGIR (Mus musculus [19]) of 89.7%.
